According to patent US20240190880A1 (THE REGENTS OF THE UNIVERSITY OF MICHIGAN, priority 2021, published 2024):

Target: T1, ER (Homo sapiens, UniProt P03372)
T1 construct: host or cells: T47D and MCF7 human breast cancer cells
T1 sequence (P03372 1-595): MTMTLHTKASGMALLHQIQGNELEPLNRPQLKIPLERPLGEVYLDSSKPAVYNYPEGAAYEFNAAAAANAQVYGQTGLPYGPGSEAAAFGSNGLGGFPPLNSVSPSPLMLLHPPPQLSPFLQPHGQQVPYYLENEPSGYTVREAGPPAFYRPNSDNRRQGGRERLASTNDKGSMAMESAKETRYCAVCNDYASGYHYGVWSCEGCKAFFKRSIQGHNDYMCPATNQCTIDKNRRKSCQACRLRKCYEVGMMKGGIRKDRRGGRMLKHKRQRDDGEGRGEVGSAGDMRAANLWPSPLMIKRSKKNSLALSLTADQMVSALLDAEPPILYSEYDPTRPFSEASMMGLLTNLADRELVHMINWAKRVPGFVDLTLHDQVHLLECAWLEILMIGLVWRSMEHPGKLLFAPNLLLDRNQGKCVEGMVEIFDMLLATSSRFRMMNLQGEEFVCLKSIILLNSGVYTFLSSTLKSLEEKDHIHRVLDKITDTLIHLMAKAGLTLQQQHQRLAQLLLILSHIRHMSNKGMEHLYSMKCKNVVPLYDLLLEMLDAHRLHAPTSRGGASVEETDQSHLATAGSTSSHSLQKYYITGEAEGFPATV
Test: ER degradation activity, in-cell western blot analysis in T47D cells
Type: cell-based
Conditions: 16 hours, Table A does not say which cell line (T47D or MCF7), read-out: Potency (DC50)
In short: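 Cells were seeded overnight, exposed to diluted compounds for 16 hours, then stained with primary antibodies and with infrared-labelled secondary antibodies (1:1000, 1 h RT). Plates were scanned on a CLX reader, and ER levels were normalised to DMSO-treated wells.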

DC50 [nM] | SMILES
> 100 | CN(C1CN(c2ccc([C@@H]3c4ccc(O)cc4CC[C@@H]3c3ccccc3)cc2)C1)[C@H]1CC[C@H](C(=O)N2Cc3cc4c(cc3C2)C(=O)N(C2CCC(=O)NC2=O)C4)CC1 (single isomer, unassigned) [E 355]
> 100 | C[C@@H]1Cc2c([nH]c3ccccc23)[C@@H](c2c(F)cc(N3CC4(CCN4CC(=O)N4Cc5cc6c(cc5C4)C(=O)N(C4CCC(=O)NC4=O)C6=O)C3)cc2F)N1CC(F)F (stereo partly drawn) [E 60, 6-(2-(6-(4-((1R,3R)-2-(2,2-difluoroethyl)-3-methyl-2,3,4,9-tetrahydro-1H-pyrido[3,4-b]indol-1-yl)-3,5-difluorophenyl)-1,6-diazaspiro[3.3]heptan-1-yl)acetyl)-2-(2,6-dioxopiperidin-3-yl)-6,7-dihydropyrrolo[3,4-f]isoindole-1,3(2H,5H)-dione]
> 100 | C[C@@H]1Cc2c([nH]c3ccccc23)[C@@H](c2ccc(N3CCC4(CCN(C(=O)CN5Cc6cc7c(cc6C5)C(=O)N(C5CCC(=O)NC5=O)C7=O)CC4)CC3)cn2)N1CC(F)F (stereo partly drawn) [E 280, 6-(2-(9-(6-((1S,3R)-2-(2,2-difluoroethyl)-3-methyl-2,3,4,9-tetrahydro-1H-pyrido[3,4-b]indol-1-yl)pyridin-3-yl)-3,9-diazaspiro[5.5]undecan-3-yl)-2-oxoethyl)-2-(2,6-dioxopiperidin-3-yl)-6,7-dihydropyrrolo[3,4-f]isoindole-1,3(2H,5H)-dione]
< 10 | C[C@H]1Cc2c([nH]c3ccccc23)[C@H](c2c(F)cc(N3CC4(CCN(C(=O)CN5Cc6cc7c(cc6C5)C(=O)N(C5CCC(=O)NC5=O)C7)CC4)C3)cc2F)N1CC(F)F (stereo in doubt) [E 85, 3-(6-(2-(2-(4-((1S,3S)-2-(2,2-difluoroethyl)-3-methyl-2,3,4,9-tetrahydro-1H-pyrido[3,4-b]indol-1-yl)-3,5-difluorophenyl)-2,7-diazaspiro[3.5]nonan-7-yl)-2-oxoethyl)-1-oxo-3,5,6,7-tetrahydropyrrolo[3,4-f]isoindol-2(1H)-yl)piperidine-2,6-dione]
10 to 100 | C[C@@H]1Cc2c([nH]c3ccccc23)[C@@H](c2c(F)cc(N3CCCC4(CCN(C(=O)CN5Cc6cc7c(cc6C5)C(=O)N(C5CCC(=O)NC5=O)C7)C4)C3)cc2F)N1CC(F)F (stereo partly drawn) [E 67, 3-(6-(2-(7-(4-((1R,3R)-2-(2,2-difluoroethyl)-3-methyl-2,3,4,9-tetrahydro-1H-pyrido[3,4-b]indol-1-yl)-3,5-difluorophenyl)-2,7-diazaspiro[4.5]decan-2-yl)-2-oxoethyl)-1-oxo-3,5,6,7-tetrahydropyrrolo[3,4-f]isoindol-2(1H)-yl)piperidine-2,6-dione]
10 to 100 | O=C1CCC(N2C(=O)c3cc4c(cc3C2=O)CN(CC(=O)N2CCC3(CC2)CCN(c2ccc([C@@H]5c6ccc(O)cc6CC[C@@H]5c5ccccc5)cc2)CC3)C4)C(=O)N1 (mixture of isomers) [E 20, Rac-2-(2,6-dioxopiperidin-3-yl)-6-(2-(9-(4-((1R,2S)-6-hydroxy-2-phenyl-1,2,3,4-tetrahydronaphthalen-1-yl)phenyl)-3,9-diazaspiro[5.5]undecan-3-yl)-2-oxoethyl)-6,7-dihydropyrrolo[3,4-f]isoindole-1,3(2H,5H)-dione]
> 100 | O=C1CCC(N2C(=O)c3cc4c(cc3C2=O)CN(CC2CCN(CC3CCN(c5ccc([C@@H]6c7ccc(O)cc7CC[C@@H]6c6ccccc6)cc5)CC3)CC2)C4)C(=O)N1 (stereo partly drawn) [E 217, 2-(2,6-dioxopiperidin-3-yl)-6-((1-((1-(4-((1R,2S)-6-hydroxy-2-phenyl-1,2,3,4-tetrahydronaphthalen-1-yl)phenyl)piperidin-4-yl)methyl)piperidin-4-yl)methyl)-6,7-dihydropyrrolo[3,4-f]isoindole-1,3(2H,5H)-dione]
> 100 | C[C@@H]1Cc2c([nH]c3ccccc23)[C@@H](c2c(F)cc(N3CC4(CCN4CC(=O)N4Cc5cc6c(cc5C4)C(=O)N(C4CCC(=O)NC4=O)C6)C3)cc2F)N1CC(F)F (stereo partly drawn) [E 61, 3-(6-(2-(6-(4-((1R,3R)-2-(2,2-difluoroethyl)-3-methyl-2,3,4,9-tetrahydro-1H-pyrido[3,4-b]indol-1-yl)-3,5-difluorophenyl)-1,6-diazaspiro[3.3]heptan-1-yl)acetyl)-1-oxo-3,5,6,7-tetrahydropyrrolo[3,4-f]isoindol-2(1H)-yl)piperidine-2,6-dione]
> 100 | O=C1CCC(N2C(=O)c3cc4c(cc3C2=O)CN(CC2CCC(NC3CN(c5ccc([C@@H]6c7ccc(O)cc7CC[C@@H]6c6ccccc6)cc5)C3)CC2)C4)C(=O)N1 (stereo partly drawn) [E 337, 2-(2,6-dioxopiperidin-3-yl)-6-((4-((1-(4-((1R,2S)-6-hydroxy-2-phenyl-1,2,3,4-tetrahydronaphthalen-1-yl)phenyl)azetidin-3-yl)amino)cyclohexyl)methyl)-6,7-dihydropyrrolo[3,4-f]isoindole-1,3(2H,5H)-dione]
10 to 100 | O=C1CCC(N2C(=O)c3cc4c(cc3C2=O)CN(CC(=O)N2CCC3(CC2)CCN(c2ccc(C(=C(CCCl)c5ccc(F)cc5)c5ccc(O)cc5)cc2)CC3)CC4)C(=O)N1 (centres unmarked) [E 193]
< 10 | C[C@@H]1Cc2cc(O)ccc2[C@@H](c2c(F)cc(N3CC4(CCN(C(=O)CN5Cc6cc7c(cc6C5)C(=O)N(C5CCC(=O)NC5=O)C7=O)C4)C3)cc2F)N1CC(F)F (stereo partly drawn) [E 43, 6-(2-(2-(4-((1S,3R)-2-(2,2-difluoroethyl)-6-hydroxy-3-methyl-1,2,3,4-tetrahydroisoquinolin-1-yl)-3,5-difluorophenyl)-2,6-diazaspiro[3.4]octan-6-yl)-2-oxoethyl)-2-(2,6-dioxopiperidin-3-yl)-6,7-dihydropyrrolo[3,4-f]isoindole-1,3(2H,5H)-dione]
10 to 100 | CCC(=C(c1ccc(O)cc1)c1ccc(N2CCC3(CC2)CN(C(=O)CN2CCc4cc5c(cc4C2)C(=O)N(C2CCC(=O)NC2=O)C5=O)C3)cc1)c1ccccc1 (centres unmarked) [E 194, 2-(2,6-dioxopiperidin-3-yl)-6-(2-(7-(4-(1-(4-hydroxyphenyl)-2-phenylbut-1-en-1-yl)phenyl)-2,7-diazaspiro[3.5]nonan-2-yl)-2-oxoethyl)-5,6,7,8-tetrahydro-1H-pyrrolo[3,4-g]isoquinoline-1,3(2H)-dione]
10 to 100 | O=C1CCC(N2C(=O)c3cc4c(cc3C2=O)CN(CC(=O)N2CC3(CCN(c5ccc([C@@H]6c7ccc(O)cc7CC[C@@H]6c6ccc(F)cc6)cc5)CC3)C2)CC4)C(=O)N1 (mixture of isomers) [E 164, rac-2-(2,6-dioxopiperidin-3-yl)-6-(2-(7-(4-((1R,2S)-2-(4-fluorophenyl)-6-hydroxy-1,2,3,4-tetrahydronaphthalen-1-yl)phenyl)-2,7-diazaspiro[3.5]nonan-2-yl)-2-oxoethyl)-5,6,7,8-tetrahydro-1H-pyrrolo[3,4-g]isoquinoline-1,3(2H)-dione]
10 to 100 | O=C1CCC(N2C(=O)c3cc4c(cc3C2=O)CN(CC(=O)N2CCC3(CC2)CCN(c2ccc(C(=C(CCCl)c5ccccc5)c5ccc(B(O)O)cc5)cc2)CC3)C4)C(=O)N1 (centres unmarked) [E 197, (4-(4-chloro-1-(4-(9-(2-(6-(2,6-dioxopiperidin-3-yl)-5,7-dioxo-3,5,6,7-tetrahydropyrrolo[3,4-f]isoindol-2(1H)-yl)acetyl)-3,9-diazaspiro[5.5]undecan-3-yl)phenyl)-2-phenylbut-1-en-1-yl)phenyl)boronic acid]

Same assay, conditions: compounds 16 hours, Table A does not say whether T47D or MCF7, read-out: Potency (DC50)

DC50 [nM] | SMILES
10 to 100 | O=C1CCC(N2C(=O)c3cc4c(cc3C2=O)CN(CC2COC3(CCN(c5ccc([C@@H]6c7ccc(O)cc7CC[C@@H]6c6ccccc6)cc5)CC3)C2)C4)C(=O)N1 (stereo partly drawn) [E 515, 2-(2,6-dioxopiperidin-3-yl)-6-((8-(4-((1R,2S)-6-hydroxy-2-phenyl-1,2,3,4-tetrahydronaphthalen-1-yl)phenyl)-1-oxa-8-azaspiro[4.5]decan-3-yl)methyl)-6,7-dihydropyrrolo[3,4-f]isoindole-1,3(2H,5H)-dione]
> 100 | O=C1CCC(N2C(=O)c3cc4c(cc3C2=O)CN(CC2CC3(CCN(C(=O)c5ccc([C@@H]6c7ccc(O)cc7CC[C@@H]6c6ccccc6)cc5)CC3)C2)C4)C(=O)N1 (stereo partly drawn) [E 494, 2-(2,6-dioxopiperidin-3-yl)-6-((7-(4-((1R,2S)-6-hydroxy-2-phenyl-1,2,3,4-tetrahydronaphthalen-1-yl)benzoyl)-7-azaspiro[3.5]nonan-2-yl)methyl)-6,7-dihydropyrrolo[3,4-f]isoindole-1,3(2H,5H)-dione]
> 100 | O=C1CCC(N2C(=O)c3cc4c(cc3C2=O)CC2(C4)CN(C(=O)C3CCN(c4ccc([C@@H]5c6ccc(O)cc6CC[C@@H]5c5ccccc5)cc4)CC3)C2)C(=O)N1 (stereo partly drawn) [E 501, 2′-(2,6-dioxopiperidin-3-yl)-1-(1-(4-((1R,2S)-6-hydroxy-2-phenyl-1,2,3,4-tetrahydronaphthalen-1-yl)phenyl)piperidine-4-carbonyl)-5′,7′-dihydro-1′H-spiro[azetidine-3,6′-cyclopenta[f]isoindole]-1′,3′(2′H)-dione]
